# Patent US20150105252A1, “SUBSTITUTED PYRAZOLES AS HERBICIDES” (E I DU PONT DE NEMOURS AND COMPANY, priority 2013, published 2015)
# Legend:
# morningglory [1] = test: Test A preemergence; format: in vivo, Ipomoea spp.; conditions: preemergence; for Morningglory plant response rating (0 to 100 scale): 125 g ai/ha, visual injury approx. 10 days after treatment; for Morningglory plant response rating: 500 g ai/ha, visual injury after approx. 10 days, 0 to 100 scale (0 no effect, 100 complete control)
# In short: (§1)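 Injury readout: eye-scored versus untreated controls, 0 to 100. Exposure period: ~10 days, greenhouse. Application: soil-directed spray over sown seed (pre) or spray on seedlings 2–10 cm tall with one or two leaves (post), compound carried in non-phytotoxic solvent including surfactant.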
# corn = test: Test A postemergence; format: in vivo, Zea mays
# In short: as §1
# sedge, umbrella = test: Test B flood; format: in vivo, Cyperus difformis; conditions: 250 g ai/ha, visual rating on 0 to 100 scale (0 no effect, 100 complete control), 13 to 15 days
# In short: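 Plants were grown to the 2-leaf stage and pots flooded to 3 cm above soil. Compounds were applied directly into the paddy water, with depth kept for the test. After 13–15 days in greenhouse, response was rated visually against controls on a 0 (no effect) to 100 (complete control) scale.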
# ryegrass, Italian = test: Test C preemergence; format: in vivo, Lolium multiflorum
# In short: (§2)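 Seeds were sown in a loam soil–sand blend and sprayed preemergence with compounds formulated in a non-phytotoxic solvent mixture containing surfactant. Postemergence plants, grown in peat/vermiculite medium to 2–18 cm (1- to 4-leaf stage), received the same formulation. After 13 to 15 days in a greenhouse, injury was rated visually against controls (0 = no effect, 100 = complete control).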
# galium = test: Test C preemergence; format: in vivo, Galium aparine
# In short: as §2
# crabgrass, large = test: Test C preemergence; format: in vivo, Digitaria sanguinalis
# In short: as §2
# wheat = test: Test C postemergence; format: in vivo, Triticum aestivum; conditions: for Plant response rating, Wheat / Wheat plant response rating: postemergence; for Plant response rating, Wheat: 250 g ai/ha, scale 0 to 100 (0 no effect, 100 complete control); for Wheat plant response rating: scale 0 to 100
# In short: as §2
# foxtail, giant = test: Test C postemergence; format: in vivo, Setaria faberii; conditions: for Plant response rating (scale of 0 to 100 where 0 is no effect and 100 is complete control), Foxtail, Giant: Postemergence, 31 g ai/ha, visually evaluated after 13 to 15 days; for Foxtail, Giant plant response rating / Plant response rating, Foxtail, Giant: postemergence; for Foxtail, Giant plant response rating: 62 g ai/ha, scale 0 to 100
# In short: as §2
# morningglory [2] = test: Test C postemergence; format: in vivo, Ipomoea coccinea; conditions: for Plant response rating (scale of 0 to 100 where 0 is no effect and 100 is complete control), Morningglory: Postemergence, 31 g ai/ha, visually evaluated after 13 to 15 days; for Morningglory plant response rating / Plant response rating, Morningglory: postemergence; for Morningglory plant response rating: 62 g ai/ha, scale 0 to 100
# In short: as §2
# pigweed = test: Test C postemergence; format: in vivo, Amaranthus retroflexus; conditions: for Pigweed plant response rating / Plant response rating, Pigweed: postemergence; for Pigweed plant response rating: 62 g ai/ha, scale 0 to 100
# In short: as §2
# ragweed = test: Test C postemergence; format: in vivo, Ambrosia elation; conditions: for Plant response rating, Ragweed: postemergence
# In short: as §2
# oat, wild = test: Test C postemergence; format: in vivo, Avena fatua; conditions: for Plant response rating (scale of 0 to 100 where 0 is no effect and 100 is complete control), Oat, Wild: Postemergence, 31 g ai/ha, visually evaluated after 13 to 15 days; for Oat, Wild plant response rating / Plant response rating, Oat, Wild: postemergence; for Oat, Wild plant response rating: 62 g ai/ha, scale 0 to 100
# In short: as §2
# chickweed = test: Test C postemergence; format: in vivo, Stellaria media; conditions: for Plant response rating (scale of 0 to 100 where 0 is no effect and 100 is complete control), Chickweed: Postemergence, 31 g ai/ha, visually evaluated after 13 to 15 days; for Chickweed plant response rating / Plant response rating, Chickweed: postemergence; for Chickweed plant response rating: 62 g ai/ha, scale 0 to 100
# In short: as §2
# [3] = Postemergence, 500 g ai/ha, 0 to 100 scale (0 no effect, 100 complete control)
# [4] = postemergence, 125 g ai/ha, about 10 days, visual rating on 0 to 100 scale (0 no effect, 100 complete control)
# [5] = preemergence, 31 g ai/ha, visual rating, scale 0 to 100 (0 no effect, 100 complete control), 13 to 15 days
# [6] = preemergence, 62 g ai/ha, scale 0 to 100 (0 no effect, 100 complete control), 13 to 15 days
# [7] = preemergence, 125 g ai/ha, 13 to 15 days, scale 0 to 100, 0 = no effect, 100 = complete control
# [8] = preemergence, 250 g ai/ha, scale 0 to 100, 0 is no effect, 100 is complete control
# [9] = 250 g ai/ha, scale 0 to 100 (0 no effect, 100 complete control)
# [10] = 125 g ai/ha, scale 0 to 100, 0 no effect, 100 complete control
# [11] = Postemergence, 31 g ai/ha, visually evaluated after 13 to 15 days
# [12] = Preemergence, rate head not shown (block before 16 g ai/ha), scale 0 to 100
smiles,measurement,setting,value
CCCc1cc(C(=O)NC(C)C)nn1Cc1cc(C(F)(F)F)nn1C [Compound 201],Morningglory plant response rating (0 to 100 scale),morningglory [1],100
same,Morningglory plant response rating,morningglory [1],100
same,Corn plant response rating,corn; [3],100
same,Corn plant response rating,corn; [4],90
same,"Plant response rating, Sedge, Umbrella","sedge, umbrella",95
same,"Ryegrass, Italian plant response rating","ryegrass, Italian; [5]",65
same,"Ryegrass, Italian plant response rating","ryegrass, Italian; [6]",90
same,"Plant response rating, Ryegrass, Italian","ryegrass, Italian; [7]",90
same,"Ryegrass, Italian plant response rating","ryegrass, Italian; [8]",90
same,Galium plant response rating,galium; [5],95
same,Galium plant response rating,galium; [6],95
same,"Plant response rating, Galium",galium; [7],98
same,Galium plant response rating,galium; [8],100
same,"Crabgrass, Large plant response rating","crabgrass, large; [5]",100
same,"Crabgrass, Large plant response rating","crabgrass, large; [6]",100
same,"Plant response rating, Crabgrass, Large","crabgrass, large; [7]",100
same,"Crabgrass, Large plant response rating","crabgrass, large; [8]",100
same,"Plant response rating, Wheat",wheat,10
same,Wheat plant response rating,wheat,5
same,"Plant response rating (scale of 0 to 100 where 0 is no effect and 100 is complete control), Foxtail, Giant","foxtail, giant",10
same,"Foxtail, Giant plant response rating","foxtail, giant",10
same,"Plant response rating, Foxtail, Giant","foxtail, giant; [9]",85
same,"Plant response rating, Foxtail, Giant","foxtail, giant; [10]",30
same,"Plant response rating (scale of 0 to 100 where 0 is no effect and 100 is complete control), Morningglory",morningglory [2],80
same,Morningglory plant response rating,morningglory [2],95
same,"Plant response rating, Morningglory",morningglory [2]; [9],98
same,"Plant response rating, Morningglory",morningglory [2]; [10],85
same,Pigweed plant response rating,pigweed,65
same,"Plant response rating, Pigweed",pigweed; [9],90
same,"Plant response rating, Pigweed",pigweed; [10],80
same,"Plant response rating, Ragweed",ragweed; [9],85
same,"Plant response rating, Ragweed",ragweed; [10],60
same,"Plant response rating (scale of 0 to 100 where 0 is no effect and 100 is complete control), Oat, Wild","oat, wild",5
same,"Oat, Wild plant response rating","oat, wild",10
same,"Plant response rating, Oat, Wild","oat, wild; [9]",40
same,"Plant response rating, Oat, Wild","oat, wild; [10]",25
same,"Plant response rating (scale of 0 to 100 where 0 is no effect and 100 is complete control), Chickweed",chickweed,75
same,Chickweed plant response rating,chickweed,80
same,"Plant response rating, Chickweed",chickweed; [9],85
same,"Plant response rating, Chickweed",chickweed; [10],85
O=C(NC1CC1)c1cc(CCCl)n(Cc2ccnc(C(F)(F)F)c2)n1 [Compound 144],Morningglory plant response rating (0 to 100 scale),morningglory [1],80
same,Morningglory plant response rating,morningglory [1],100
same,Corn plant response rating,corn; [3],90
same,Corn plant response rating,corn; [4],50
same,"Plant response rating, Sedge, Umbrella","sedge, umbrella",95
same,"Ryegrass, Italian plant response rating","ryegrass, Italian; [5]",5
same,"Ryegrass, Italian plant response rating","ryegrass, Italian; [6]",30
same,"Plant response rating, Ryegrass, Italian","ryegrass, Italian; [7]",85
same,"Ryegrass, Italian plant response rating","ryegrass, Italian; [8]",90
same,Galium plant response rating,galium; [5],30
same,Galium plant response rating,galium; [6],80
same,"Plant response rating, Galium",galium; [7],100
same,Galium plant response rating,galium; [8],100
same,"Crabgrass, Large plant response rating","crabgrass, large; [5]",100
same,"Crabgrass, Large plant response rating","crabgrass, large; [6]",100
same,"Plant response rating, Crabgrass, Large","crabgrass, large; [7]",100
same,"Crabgrass, Large plant response rating","crabgrass, large; [8]",100
same,"Plant response rating (scale of 0 to 100 where 0 is no effect and 100 is complete control), Wheat",wheat; [11],5
same,"Plant response rating, Wheat",wheat,10
same,Wheat plant response rating,wheat,10
same,"Plant response rating (scale of 0 to 100 where 0 is no effect and 100 is complete control), Foxtail, Giant","foxtail, giant",5
same,"Foxtail, Giant plant response rating","foxtail, giant",10
same,"Plant response rating, Foxtail, Giant","foxtail, giant; [9]",25
same,"Plant response rating, Foxtail, Giant","foxtail, giant; [10]",15
same,"Plant response rating (scale of 0 to 100 where 0 is no effect and 100 is complete control), Morningglory",morningglory [2],35
same,Morningglory plant response rating,morningglory [2],40
same,"Plant response rating, Morningglory",morningglory [2]; [9],98
same,"Plant response rating, Morningglory",morningglory [2]; [10],85
same,"Plant response rating (scale of 0 to 100 where 0 is no effect and 100 is complete control), Pigweed",pigweed; [11],65
same,Pigweed plant response rating,pigweed,75
same,"Plant response rating, Pigweed",pigweed; [9],95
same,"Plant response rating, Pigweed",pigweed; [10],85
same,"Plant response rating (scale of 0 to 100 where 0 is no effect and 100 is complete control), Ragweed",ragweed; [11],10
same,"Plant response rating, Ragweed",ragweed; [9],75
same,"Plant response rating, Ragweed",ragweed; [10],35
same,"Plant response rating (scale of 0 to 100 where 0 is no effect and 100 is complete control), Oat, Wild","oat, wild",15
same,"Oat, Wild plant response rating","oat, wild",10
same,"Plant response rating, Oat, Wild","oat, wild; [9]",45
same,"Plant response rating, Oat, Wild","oat, wild; [10]",20
same,"Plant response rating (scale of 0 to 100 where 0 is no effect and 100 is complete control), Chickweed",chickweed,70
same,Chickweed plant response rating,chickweed,65
same,"Plant response rating, Chickweed",chickweed; [9],90
same,"Plant response rating, Chickweed",chickweed; [10],80
CCc1cc(C(=O)NC2CC2)nn1Cc1ccnc(Br)c1 [Compound 220],Morningglory plant response rating (0 to 100 scale),morningglory [1],20
same,Corn plant response rating,"corn; Postemergence, 125 g ai/ha, 0 to 100 scale, 0 no effect, 100 complete control",40
same,Corn plant response rating,corn; [3],90
same,"Plant response rating, Sedge, Umbrella","sedge, umbrella",70
same,"Plant response rating, Ryegrass, Italian","ryegrass, Italian; [12]",0
same,"Ryegrass, Italian plant response rating","ryegrass, Italian; [6]",0
same,"Plant response rating, Ryegrass, Italian","ryegrass, Italian; [7]",5
same,"Ryegrass, Italian plant response rating","ryegrass, Italian; [8]",5
same,"Plant response rating, Galium",galium; [12],5
same,Galium plant response rating,galium; [6],80
same,"Plant response rating, Galium",galium; [7],80
same,Galium plant response rating,galium; [8],98
same,"Plant response rating, Crabgrass, Large","crabgrass, large; [12]",95
same,"Crabgrass, Large plant response rating","crabgrass, large; [6]",100
same,"Plant response rating, Crabgrass, Large","crabgrass, large; [7]",100
same,"Crabgrass, Large plant response rating","crabgrass, large; [8]",100
same,"Plant response rating, Wheat",wheat,5
same,Wheat plant response rating,wheat,0
same,"Plant response rating (scale of 0 to 100 where 0 is no effect and 100 is complete control), Foxtail, Giant","foxtail, giant",0
same,"Foxtail, Giant plant response rating","foxtail, giant",5
same,"Plant response rating, Foxtail, Giant","foxtail, giant; [9]",5
same,"Plant response rating, Foxtail, Giant","foxtail, giant; [10]",5
same,"Plant response rating (scale of 0 to 100 where 0 is no effect and 100 is complete control), Morningglory",morningglory [2],10
same,Morningglory plant response rating,morningglory [2],55
same,"Plant response rating, Morningglory",morningglory [2]; [9],70
same,"Plant response rating, Morningglory",morningglory [2]; [10],40
same,Pigweed plant response rating,pigweed,25
same,"Plant response rating, Pigweed",pigweed; [9],60
same,"Plant response rating, Pigweed",pigweed; [10],40
same,"Plant response rating, Ragweed",ragweed; [9],45
same,"Plant response rating, Ragweed",ragweed; [10],50
same,"Plant response rating (scale of 0 to 100 where 0 is no effect and 100 is complete control), Oat, Wild","oat, wild",0
same,"Oat, Wild plant response rating","oat, wild",5
same,"Plant response rating, Oat, Wild","oat, wild; [9]",15
same,"Plant response rating, Oat, Wild","oat, wild; [10]",10
same,"Plant response rating (scale of 0 to 100 where 0 is no effect and 100 is complete control), Chickweed",chickweed,50
same,Chickweed plant response rating,chickweed,55
same,"Plant response rating, Chickweed",chickweed; [9],80
same,"Plant response rating, Chickweed",chickweed; [10],60
